Measurements taken from the supplement of paper PMC10307832.

Tests used:
Assay in all cases: relative viability (nuclei count vs DMSO), 5 days (fraction); higher = more cells survive
LU99A = tested on: LU99A
Method in brief: (§1)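 One day after seeding in 1536-well plates, lung cancer cell lines were dosed by pin tool. Dosing was either single-drug or a fixed anchor-drug dose plus five library-drug doses (not always all listed) in √10 steps. After 5 days, nuclei were stained in one fix-and-stain step and counted on 4× images, and relative viability is the nuclei count of treated wells over that of vehicle wells, given as the median of duplicate plates.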

NCI-H1651 = tested on: NCI-H1651
Method in brief: as §1

SK-MES-1 = tested on: SK-MES-1
Method in brief: as §1

PC-3 [JPC-3] = tested on: PC-3 [JPC-3]
Method in brief: as §1

LK-2 = tested on: LK-2
Method in brief: as §1

NCI-H1355 = tested on: NCI-H1355
Method in brief: as §1

NCI-H2087 = tested on: NCI-H2087
Method in brief: as §1

LCLC-97TM1 = tested on: LCLC-97TM1
Method in brief: as §1

NCI-H661 = tested on: NCI-H661
Method in brief: as §1

BEN = tested on: BEN
Method in brief: as §1

NCI-H358 = tested on: NCI-H358
Method in brief: as §1

NCI-H1666 = tested on: NCI-H1666
Method in brief: as §1

NCI-H838 = tested on: NCI-H838
Method in brief: as §1

NCI-H1944 = tested on: NCI-H1944
Method in brief: as §1

HCC-78 = tested on: HCC-78
Method in brief: as §1

NCI-H1975 = tested on: NCI-H1975
Method in brief: as §1

LC-2-ad = tested on: LC-2-ad
Method in brief: as §1

LXF-289 = tested on: LXF-289
Method in brief: as §1

NCI-H596 = tested on: NCI-H596
Method in brief: as §1

NCI-H650 = tested on: NCI-H650
Method in brief: as §1

Structure (SMILES): COc1nc(C)cnc1NS(=O)(=O)c1cccnc1-c1ccc(-c2nnco2)cc1 [Zibotentan] + CS(=O)(=O)CCNCc1ccc(-c2ccc3ncnc(Nc4ccc(OCc5cccc(F)c5)c(Cl)c4)c3c2)o1 [Lapatinib] (partner 2 µM)
- relative viability (LU99A; first compound 0.08 µM): 1.02
- relative viability (LU99A; first compound 0.253 µM): 1.01
- relative viability (LU99A; first compound 0.8 µM): 1.05
- relative viability (LU99A; first compound 2.53 µM): 0.949
- relative viability (NCI-H1651; first compound 0.08 µM): 0.935
- relative viability (NCI-H1651; first compound 0.253 µM): 0.366
- relative viability (NCI-H1651; first compound 0.8 µM): 0.747
- relative viability (NCI-H1651; first compound 2.53 µM): 0.854
- relative viability (SK-MES-1; first compound 0.08 µM): 0.505
- relative viability (SK-MES-1; first compound 0.253 µM): 0.453
- relative viability (SK-MES-1; first compound 0.8 µM): 0.498
- relative viability (SK-MES-1; first compound 2.53 µM): 0.509
- relative viability (PC-3 [JPC-3]; first compound 0.08 µM): 0.444
- relative viability (PC-3 [JPC-3]; first compound 0.253 µM): 0.458
- relative viability (PC-3 [JPC-3]; first compound 0.8 µM): 0.421
- relative viability (PC-3 [JPC-3]; first compound 2.53 µM): 0.48
- relative viability (LK-2; first compound 0.08 µM): 1.02
- relative viability (LK-2; first compound 0.253 µM): 0.885
- relative viability (LK-2; first compound 0.8 µM): 0.917
- relative viability (LK-2; first compound 2.53 µM): 0.986
- relative viability (NCI-H1355; first compound 0.08 µM): 1.01
- relative viability (NCI-H1355; first compound 0.253 µM): 1.03
- relative viability (NCI-H1355; first compound 0.8 µM): 0.946
- relative viability (NCI-H1355; first compound 2.53 µM): 0.977
- relative viability (NCI-H2087; first compound 0.08 µM): 1.17
- relative viability (NCI-H2087; first compound 0.253 µM): 0.955
- relative viability (NCI-H2087; first compound 0.8 µM): 1.06
- relative viability (NCI-H2087; first compound 2.53 µM): 1.09
- relative viability (LCLC-97TM1; first compound 0.08 µM): 1.01
- relative viability (LCLC-97TM1; first compound 0.253 µM): 0.95
- relative viability (LCLC-97TM1; first compound 0.8 µM): 0.841
- relative viability (LCLC-97TM1; first compound 2.53 µM): 0.93
- relative viability (NCI-H661; first compound 0.08 µM): 0.453
- relative viability (NCI-H661; first compound 0.253 µM): 0.445
- relative viability (NCI-H661; first compound 0.8 µM): 0.445
- relative viability (NCI-H661; first compound 2.53 µM): 0.46
- relative viability (BEN; first compound 0.08 µM): 0.762
- relative viability (BEN; first compound 0.253 µM): 0.721
- relative viability (BEN; first compound 0.8 µM): 0.68
- relative viability (BEN; first compound 2.53 µM): 0.605
- relative viability (NCI-H358; first compound 0.08 µM): 0.453
- relative viability (NCI-H358; first compound 0.8 µM): 0.469
- relative viability (NCI-H358; first compound 2.53 µM): 0.503
- relative viability (NCI-H1666; first compound 0.08 µM): 0.63
- relative viability (NCI-H1666; first compound 0.253 µM): 0.435
- relative viability (NCI-H1666; first compound 0.8 µM): 0.495
- relative viability (NCI-H1666; first compound 2.53 µM): 0.688
- relative viability (NCI-H838; first compound 0.08 µM): 0.938
- relative viability (NCI-H838; first compound 0.253 µM): 0.838
- relative viability (NCI-H838; first compound 0.8 µM): 0.922
- relative viability (NCI-H838; first compound 2.53 µM): 1.06
- relative viability (NCI-H1944; first compound 0.08 µM): 1.06
- relative viability (NCI-H1944; first compound 0.253 µM): 0.7
- relative viability (NCI-H1944; first compound 0.8 µM): 0.747
- relative viability (NCI-H1944; first compound 2.53 µM): 0.762
- relative viability (HCC-78; first compound 0.08 µM): 0.844
- relative viability (HCC-78; first compound 0.253 µM): 0.701
- relative viability (HCC-78; first compound 0.8 µM): 0.847
- relative viability (HCC-78; first compound 2.53 µM): 0.788
- relative viability (NCI-H1975; first compound 0.08 µM): 0.837
- relative viability (NCI-H1975; first compound 0.253 µM): 0.8
- relative viability (NCI-H1975; first compound 0.8 µM): 0.781
- relative viability (NCI-H1975; first compound 2.53 µM): 0.884
- relative viability (LC-2-ad; first compound 0.08 µM): 0.962
- relative viability (LC-2-ad; first compound 0.253 µM): 0.944
- relative viability (LC-2-ad; first compound 0.8 µM): 1.06
- relative viability (LC-2-ad; first compound 2.53 µM): 1.01
- relative viability (LXF-289; first compound 0.08 µM): 0.873
- relative viability (LXF-289; first compound 0.253 µM): 0.886
- relative viability (LXF-289; first compound 0.8 µM): 0.93
- relative viability (LXF-289; first compound 2.53 µM): 0.878
- relative viability (NCI-H596; first compound 0.08 µM): 1.03
- relative viability (NCI-H596; first compound 0.253 µM): 1.12
- relative viability (NCI-H596; first compound 0.8 µM): 1.08
- relative viability (NCI-H596; first compound 2.53 µM): 1.08
- relative viability (NCI-H650; first compound 0.08 µM): 0.974
- relative viability (NCI-H650; first compound 0.253 µM): 0.655
- relative viability (NCI-H650; first compound 0.8 µM): 1
- relative viability (NCI-H650; first compound 2.53 µM): 0.904
